Laboratory results from patent US9556165B2 (priority 2012, dated 2017).
≈ marks a conversion by molar mass, not a printed value.

Legend:
Format in all cases: cell-based
S. aureus 133 = assay: MIC determination, broth microdilution (CLSI); details: for MIC: Staphylococcus aureus, 133, strain 11, read-out: strain 11 MIC
M. catarrhalis ICB489 = assay: MIC determination, broth microdilution (CLSI); details: for MIC: Moraxella catarrhalis, ICB489, strain 12
C. freundii K21/3034 = assay: MIC determination, broth microdilution (CLSI); details: for MIC: Citrobacter freundii, K21/3034, strain 4
E. cloacae 34654 = assay: MIC determination, broth microdilution (CLSI); details: for MIC: Enterobacter cloacae, 34654, strain 3
B. fragilis 6688 = assay: MIC determination, broth microdilution (CLSI); details: for MIC: Bacteroides fragilis, 6688, strain 15, read-out: strain 15 MIC
E. coli ATCC25922 = assay: MIC determination, broth microdilution (CLSI); details: for MIC: Escherichia coli, ATCC25922, strain 1
M. morganii 126/3048 = assay: MIC determination, broth microdilution (CLSI); details: for MIC: Morganella morganii, 126/3048, strain 5
[1] = tested on: P. aeruginosa 2297-con (AmpC derepressed); assay: MIC determination, broth microdilution (CLSI); details: for MIC: Pseudomonas aeruginosa, read-out: strain 8 MIC, strain 8
H. influenzae ATCC 49247 = assay: MIC determination, broth microdilution (CLSI); details: for MIC: Haemophilus influenzae, ATCC49247, strain 13, read-out: strain 13 MIC
S. maltophilia ICB7569 = assay: MIC determination, broth microdilution (CLSI); details: for MIC: Stenotrophomonas maltophilia, ICB7569, strain 10
E. coli J62 = assay: MIC determination, broth microdilution (CLSI); details: for MIC: Escherichia coli, J62, strain 17, read-out: strain 17 MIC
[2] = tested on: P. aeruginosa 2297 (AmpC wt); assay: MIC determination, broth microdilution (CLSI); details: for MIC: Pseudomonas aeruginosa, strain 7
E. coli J62-TEM-3 = assay: MIC determination, broth microdilution (CLSI); details: for MIC: Escherichia coli, J62TEM3, read-out: strain 18 MIC, strain 18
strain 20 = assay: MIC determination, broth microdilution (CLSI)
C. perfringens DSM756 = assay: microbe, parasite or virus in culture; details: for MIC: Clostridium perfringens, DSM756, read-out: strain 16 MIC, strain 16
strain 19 = assay: MIC determination, broth microdilution (CLSI)
P. aeruginosa PAO1 = assay: MIC determination, broth microdilution (CLSI); details: for MIC: Pseudomonas aeruginosa, PAO1, strain 6
A. baumannii ATCC15308 = assay: MIC determination, broth microdilution (CLSI); details: for MIC: Acinetobacter baumannii, ATCC15308, strain 9
strain 21 = assay: MIC determination, broth microdilution (CLSI)
K. pneumoniae 60 = assay: MIC determination, broth microdilution (CLSI); details: for MIC: Klebsiella pneumoniae, 60, strain 2
S. pneumoniae 113 = assay: MIC determination, broth microdilution (CLSI); details: Streptococcus pneumoniae, 113, strain 14; read-out: strain 14 MIC

Structure (SMILES) | MIC (S. aureus 133) | strain 12 MIC (M. catarrhalis ICB489) | strain 4 MIC (C. freundii K21/3034) | strain 3 MIC (E. cloacae 34654) | strain 1 MIC (E. coli ATCC25922) | strain 5 MIC (M. morganii 126/3048) | strain 8 MIC [1] | strain 13 MIC (H. influenzae ATCC 49247) | strain 10 MIC (S. maltophilia ICB7569) | strain 17 MIC (E. coli J62) | MIC [2] | strain 18 MIC (E. coli J62-TEM-3) | strain 20 MIC (strain 20) | strain 16 MIC (C. perfringens DSM756) | strain 19 MIC (strain 19) | strain 6 MIC (P. aeruginosa PAO1) | strain 9 MIC (A. baumannii ATCC15308) | strain 21 MIC (strain 21) | strain 2 MIC (K. pneumoniae 60) | MIC (M. catarrhalis ICB489) | further results
CC1(C)[C@H](NC(=O)/C(=N\OC(COc2ccc(C(=N)N)nc2)C(=O)O)c2csc(N)n2)C(=O)N1OS(=O)(=O)O (mixture of isomers) [Example 36A, (2S and 2R)-2-({[(1Z)-1-(2-Amino-1,3-thiazol-4-yl)-2-{[(3S)-2,2-dimethyl-4-oxo-1-(sulfo-oxy)azetidin-3-yl]amino}-2-oxoethylidene]amino}oxy)-3-[(6-carbamimidoylpyridin-3-yl)oxy]propanoic acid] | ≤ 0.063 µg/mL | ≦0.063 mg/L | 0.125 mg/L | ≦0.063 mg/L | 0.125 mg/L | ≦0.063 mg/L | 4 mg/L | 0.5 mg/L | 2 mg/L | 0.125 mg/L | 4 µg/mL | 8 mg/L | ≦0.063 mg/L | 2 mg/L | 0.125 mg/L | 4 mg/L | 4 mg/L | 0.125 mg/L | ≦0.063 mg/L |  | strain 15 MIC (B. fragilis 6688): 8 mg/L
CC1(C)[C@H](NC(=O)/C(=N\OC(COc2ccc(C(=N)N)c(O)c2)C(=O)O)c2csc(N)n2)C(=O)N1OS(=O)(=O)O (mixture of isomers) [Example 34B, (2S and 2R)-2-({[(1Z)-1-(2-Amino-1,3-thiazol-4-yl)-2-{[(3S)-2,2-dimethyl-4-oxo-1-(sulfo-oxy)azetidin-3-yl]amino}-2-oxoethylidene]amino}oxy)-3-(4-carbamimidoyl-3-hydroxyphenoxy)propanoic acid] |  | 0.5 mg/L | 8 mg/L | 4 mg/L | 8 mg/L | 4 mg/L | 32 mg/L | 8 mg/L | 32 mg/L | 16 mg/L |  | 32 mg/L | 4 mg/L | 32 mg/L | 4 mg/L | 32 mg/L | 32 mg/L | 8 mg/L | 8 mg/L |  | strain 11 MIC (S. aureus 133): 0.25 mg/L; strain 7 MIC [2]: 32 mg/L
C[C@H]1[C@H](NC(=O)/C(=N\OCCOc2ccc(C(=N)N)cc2)c2csc(N)n2)C(=O)N1OCS(=O)(=O)O [Example 12, {[(2S,3S)-3-{[(2Z)-2-(2-Amino-1,3-thiazol-4-yl)-2-{[2-(4-carbamimidoylphenoxy)ethoxy]imino}acetyl]amino}-2-methyl-4-oxoazetidin-1-yl]oxy}methanesulfonic acid] | 0.125 µg/mL (≈ 0.231 µM) |  |  |  |  |  |  |  |  |  | 8 µg/mL (≈ 14.8 µM) |  |  |  |  |  |  |  |  | 0.25 µg/mL (≈ 0.462 µM) | MIC (C. freundii K21/3034): 0.25 µg/mL (≈ 0.462 µM); MIC (E. cloacae 34654): 0.5 µg/mL (≈ 0.923 µM); MIC (B. fragilis 6688): 8 µg/mL (≈ 14.8 µM); MIC (E. coli ATCC25922): 0.5 µg/mL (≈ 0.923 µM); MIC (M. morganii 126/3048): 0.25 µg/mL (≈ 0.462 µM); MIC (H. influenzae ATCC 49247): ≤ 0.063 µg/mL; MIC (S. maltophilia ICB7569): 8 µg/mL (≈ 14.8 µM); MIC (E. coli J62): 0.5 µg/mL (≈ 0.923 µM); MIC (E. coli J62-TEM-3): 8 µg/mL (≈ 14.8 µM); MIC (strain 20): 0.25 µg/mL (≈ 0.462 µM); MIC (S. pneumoniae 113): 32 µg/mL (≈ 59.1 µM); MIC (C. perfringens DSM756): 16 µg/mL (≈ 29.5 µM); MIC (strain 19): 0.5 µg/mL (≈ 0.923 µM); MIC (P. aeruginosa PAO1): 4 µg/mL (≈ 7.39 µM); MIC (A. baumannii ATCC15308): 4 µg/mL (≈ 7.39 µM); MIC (strain 21): 0.25 µg/mL (≈ 0.462 µM); MIC (K. pneumoniae 60): 0.25 µg/mL (≈ 0.462 µM)
Cc1cc(OCCO/N=C(\C(=O)N[C@@H]2C(=O)N(OS(=O)(=O)O)C2(C)C)c2csc(N)n2)ccc1C(=N)N [Example 13, (2Z)-2-(2-Amino-1,3-thiazol-4-yl)-2-{[2-(4-carbamimidoyl-3-methylphenoxy)ethoxy]imino}-N-[(3S)-2,2-dimethyl-4-oxo-1-(sulfooxy)azetidin-3-yl]ethanamide] | ≤ 0.063 µg/mL |  |  |  |  |  |  |  |  |  | 16 µg/mL (≈ 28.8 µM) |  |  |  |  |  |  |  |  | 0.125 µg/mL (≈ 0.225 µM) | MIC (C. freundii K21/3034): 0.25 µg/mL (≈ 0.45 µM); MIC (E. cloacae 34654): 1 µg/mL (≈ 1.8 µM); MIC (B. fragilis 6688): 4 µg/mL (≈ 7.2 µM); MIC (E. coli ATCC25922): 0.5 µg/mL (≈ 0.9 µM); MIC (M. morganii 126/3048): 0.5 µg/mL (≈ 0.9 µM); MIC [1]: 8 µg/mL (≈ 14.4 µM); MIC (H. influenzae ATCC 49247): ≤ 0.063 µg/mL; MIC (E. coli J62): 0.5 µg/mL (≈ 0.9 µM); MIC (E. coli J62-TEM-3): 32 µg/mL (≈ 57.6 µM); MIC (strain 20): 0.5 µg/mL (≈ 0.9 µM); MIC (S. pneumoniae 113): 4 µg/mL (≈ 7.2 µM); MIC (C. perfringens DSM756): 2 µg/mL (≈ 3.6 µM); MIC (strain 19): 0.5 µg/mL (≈ 0.9 µM); MIC (P. aeruginosa PAO1): 8 µg/mL (≈ 14.4 µM); MIC (A. baumannii ATCC15308): 1 µg/mL (≈ 1.8 µM); MIC (strain 21): 0.5 µg/mL (≈ 0.9 µM); MIC (K. pneumoniae 60): 1 µg/mL (≈ 1.8 µM)
CC1(C)[C@H](NC(=O)/C(=N\OC(COc2ccc(C(=N)N)nc2)C(=O)O)c2csc(N)n2)C(=O)N1OS(=O)(=O)O (mixture of isomers) [Example 36B, (2S and 2R)-2-({[(1Z)-1-(2-Amino-1,3-thiazol-4-yl)-2-{[(3S)-2,2-dimethyl-4-oxo-1-(sulfo-oxy)azetidin-3-yl]amino}-2-oxoethylidene]amino}oxy)-3-[(6-carbamimidoylpyridin-3-yl)oxy]propanoic acid] |  | 0.5 mg/L | 0.5 mg/L | 2 mg/L | 2 mg/L | 2 mg/L | 32 mg/L | 4 mg/L | 16 mg/L | 4 mg/L |  | 32 mg/L | 2 mg/L | 32 mg/L | 2 mg/L | 16 mg/L | 32 mg/L | 2 mg/L | 1 mg/L |  | strain 11 MIC (S. aureus 133): 0.125 mg/L; strain 15 MIC (B. fragilis 6688): 32 mg/L
C[C@H]1[C@H](NC(=O)/C(=N\OC(C)(C)COc2ccc(C(=N)N)cc2)c2csc(N)n2)C(=O)N1S(=O)(=O)O [Example 18, (2S,3S)-3-{[(2Z)-2-(2-Amino-1,3-thiazol-4-yl)-2-({[1-(4-carbamimidoylphenoxy)-2-methylpropan-2-yl]oxy}imino)acetyl]amino}-2-methyl-4-oxoazetidine-1-sulfonic acid] | 0.25 µg/mL (≈ 0.463 µM) |  |  |  |  |  |  |  |  |  | 4 µg/mL (≈ 7.41 µM) |  |  |  |  |  |  |  |  | 0.5 µg/mL (≈ 0.927 µM) | MIC (C. freundii K21/3034): 1 µg/mL (≈ 1.85 µM); MIC (E. cloacae 34654): 2 µg/mL (≈ 3.71 µM); MIC (B. fragilis 6688): 4 µg/mL (≈ 7.41 µM); MIC (E. coli ATCC25922): 1 µg/mL (≈ 1.85 µM); MIC (M. morganii 126/3048): 1 µg/mL (≈ 1.85 µM); MIC [1]: 16 µg/mL (≈ 29.7 µM); MIC (H. influenzae ATCC 49247): 0.5 µg/mL (≈ 0.927 µM); MIC (S. maltophilia ICB7569): 16 µg/mL (≈ 29.7 µM); MIC (E. coli J62): 2 µg/mL (≈ 3.71 µM); MIC (E. coli J62-TEM-3): 4 µg/mL (≈ 7.41 µM); MIC (strain 20): 2 µg/mL (≈ 3.71 µM); MIC (S. pneumoniae 113): 4 µg/mL (≈ 7.41 µM); MIC (strain 19): 2 µg/mL (≈ 3.71 µM); MIC (P. aeruginosa PAO1): 4 µg/mL (≈ 7.41 µM); MIC (A. baumannii ATCC15308): 16 µg/mL (≈ 29.7 µM); MIC (strain 21): 2 µg/mL (≈ 3.71 µM); MIC (K. pneumoniae 60): 1 µg/mL (≈ 1.85 µM)
